Measurements from patent US20230372301A1, “TREATMENTS WITH NIROGACESTAT” (SpringWorks Therapeutics, Inc., priority 2022, published 2023).
Where a name gives a salt, the structure may show the parent alone. Read-outs that look alike come from different tables or passages of the source.

Tests used:
[1] = Pharmacokinetics of single oral doses of nirogacestat dihydrobromide; type: in vivo, human; conditions: for AUC(0-inf) / AUC(0-t) / Cmax / half-life / Tmax / Vd/F: human, in vivo, po
[2] = Pharmacokinetics of 150 mg nirogacestat dihydrobromide twice daily at steady state exposure; type: in vivo, human; conditions: 150 mg (free base equivalent dose) twice daily, oral
Procedure: The pharmacokinetic parameters for oral doses of 150 mg (free base equivalent dose) nirogacestat dihydrobromide twice daily at steady state exposure is provided in Table 2E below.

[3] = COHORT 1: 150 mg (1 × 150 mg), Period 2
[4] = COHORT 1: 150 mg (3 × 50 mg), Period 1
[5] = human, in vivo, steady state exposure

SMILES: CCC[C@H](N[C@H]1CCc2cc(F)cc(F)c2C1)C(=O)Nc1cn(C(C)(C)CNCC(C)(C)C)cn1 [nirogacestat dihydrobromide]
- CL/F, Geometric Mean [1, 3]: 49.7 L/h
- CL/F, Median [1, 3]: 48.4 L/h
- CL/F, Geometric Mean [1, 4]: 49.2 L/h
- CL/F, Median [1, 4]: 57.0 L/h
- CL/F, Geometric Mean ([1]; COHORT 2: 100 mg, Period 1): 56.1 L/h
- CL/F, Median ([1]; COHORT 2: 100 mg, Period 1): 58.4 L/h
- CL/F, Geometric Mean ([1]; COHORT 3: 50 mg, Period 1): 87.6 L/h
- CL/F, Median ([1]; COHORT 3: 50 mg, Period 1): 74.9 L/h
- AUC(0-inf) ([1]; 50 mg, COHORT 3: 50 mg, Period 1, read-out: AUCinf, Geometric Mean): 571 ng·h/mL
- AUC(0-inf) ([1]; 50 mg, COHORT 3: 50 mg, Period 1, read-out: AUCinf, Median): 674 ng·h/mL
- AUC(0-t) ([1]; 50 mg, COHORT 3: 50 mg, Period 1, read-out: AUClast, Geometric Mean): 545 ng·h/mL
- AUC(0-t) ([1]; 50 mg, COHORT 3: 50 mg, Period 1, read-out: AUClast, Median): 653 ng·h/mL
- Cmax ([1]; 50 mg, COHORT 3: 50 mg, Period 1, read-out: Cmax, Geometric Mean): 183 ng/mL
- Cmax ([1]; 50 mg, COHORT 3: 50 mg, Period 1, read-out: Cmax, Median): 209 ng/mL
- half-life ([1]; 50 mg, COHORT 3: 50 mg, Period 1, read-out: Half-life, Geometric Mean (converted)): 19.3 h
- half-life ([1]; 50 mg, COHORT 3: 50 mg, Period 1, read-out: Half-life, Median (converted)): 23.3 h
- Tmax ([1]; 50 mg, COHORT 3: 50 mg, Period 1, read-out: Tmax, Geometric Mean): 0.829 h
- Tmax ([1]; 50 mg, COHORT 3: 50 mg, Period 1, read-out: Tmax, Median): 1 h
- Vd/F ([1]; 50 mg, COHORT 3: 50 mg, Period 1, read-out: Vz/F, Geometric Mean): 2440 L
- Vd/F ([1]; 50 mg, COHORT 3: 50 mg, Period 1, read-out: Vz/F, Median): 2730 L
- AUC(0-inf) ([1]; 100 mg, COHORT 2: 100 mg, Period 1, read-out: AUCinf, Geometric Mean): 1780 ng·h/mL
- AUC(0-inf) ([1]; 100 mg, COHORT 2: 100 mg, Period 1, read-out: AUCinf, Median): 1710 ng·h/mL
- AUC(0-t) ([1]; 100 mg, COHORT 2: 100 mg, Period 1, read-out: AUClast, Geometric Mean): 1720 ng·h/mL
- AUC(0-t) ([1]; 100 mg, COHORT 2: 100 mg, Period 1, read-out: AUClast, Median): 1660 ng·h/mL
- Cmax ([1]; 100 mg, COHORT 2: 100 mg, Period 1, read-out: Cmax, Geometric Mean): 435 ng/mL
- Cmax ([1]; 100 mg, COHORT 2: 100 mg, Period 1, read-out: Cmax, Median): 433 ng/mL
- half-life ([1]; 100 mg, COHORT 2: 100 mg, Period 1, read-out: Half-life, Geometric Mean (converted)): 25.2 h
- half-life ([1]; 100 mg, COHORT 2: 100 mg, Period 1, read-out: Half-life, Median (converted)): 24.4 h
- Tmax ([1]; 100 mg, COHORT 2: 100 mg, Period 1, read-out: Tmax, Geometric Mean): 1.19 h
- Tmax ([1]; 100 mg, COHORT 2: 100 mg, Period 1, read-out: Tmax, Median): 1.28 h
- Vd/F ([1]; 100 mg, COHORT 2: 100 mg, Period 1, read-out: Vz/F, Geometric Mean): 2040 L
- Vd/F ([1]; 100 mg, COHORT 2: 100 mg, Period 1, read-out: Vz/F, Median): 2040 L
- AUC(0-inf) ([1]; 150 mg, COHORT 1: 150 mg (1 × 150 mg), Period 2, read-out: AUCinf, Geometric Mean): 3020 ng·h/mL
- AUC(0-inf) ([1]; 150 mg, COHORT 1: 150 mg (1 × 150 mg), Period 2, read-out: AUCinf, Median): 3100 ng·h/mL
- AUC(0-t) ([1]; 150 mg, COHORT 1: 150 mg (1 × 150 mg), Period 2, read-out: AUClast, Geometric Mean): 2930 ng·h/mL
- AUC(0-t) ([1]; 150 mg, COHORT 1: 150 mg (1 × 150 mg), Period 2, read-out: AUClast, Median): 3040 ng·h/mL
- Cmax ([1]; 150 mg, COHORT 1: 150 mg (1 × 150 mg), Period 2, read-out: Cmax, Geometric Mean): 686 ng/mL
- Cmax ([1]; 150 mg, COHORT 1: 150 mg (1 × 150 mg), Period 2, read-out: Cmax, Median): 662 ng/mL
- half-life ([1]; 150 mg, COHORT 1: 150 mg (1 × 150 mg), Period 2, read-out: Half-life, Geometric Mean (converted)): 24.7 h
- half-life ([1]; 150 mg, COHORT 1: 150 mg (1 × 150 mg), Period 2, read-out: Half-life, Median (converted)): 26.3 h
- Tmax ([1]; 150 mg, COHORT 1: 150 mg (1 × 150 mg), Period 2, read-out: Tmax, Geometric Mean): 1.2 h
- Tmax ([1]; 150 mg, COHORT 1: 150 mg (1 × 150 mg), Period 2, read-out: Tmax, Median): 1.5 h
- Vd/F ([1]; 150 mg, COHORT 1: 150 mg (1 × 150 mg), Period 2, read-out: Vz/F, Geometric Mean): 1770 L
- Vd/F ([1]; 150 mg, COHORT 1: 150 mg (1 × 150 mg), Period 2, read-out: Vz/F, Median): 1720 L
- AUC(0-inf) ([1]; 150 mg, COHORT 1: 150 mg (3 × 50 mg), Period 1, read-out: AUCinf, Geometric Mean): 3050 ng·h/mL
- AUC(0-inf) ([1]; 150 mg, COHORT 1: 150 mg (3 × 50 mg), Period 1, read-out: AUCinf, Median): 2640 ng·h/mL
- AUC(0-t) ([1]; 150 mg, COHORT 1: 150 mg (3 × 50 mg), Period 1, read-out: AUClast, Geometric Mean): 2960 ng·h/mL
- AUC(0-t) ([1]; 150 mg, COHORT 1: 150 mg (3 × 50 mg), Period 1, read-out: AUClast, Median): 2580 ng·h/mL
- Cmax ([1]; 150 mg, COHORT 1: 150 mg (3 × 50 mg), Period 1, read-out: Cmax, Geometric Mean): 733 ng/mL
- Cmax ([1]; 150 mg, COHORT 1: 150 mg (3 × 50 mg), Period 1, read-out: Cmax, Median): 697 ng/mL
- half-life ([1]; 150 mg, COHORT 1: 150 mg (3 × 50 mg), Period 1, read-out: Half-life, Geometric Mean (converted)): 25 h
- half-life ([1]; 150 mg, COHORT 1: 150 mg (3 × 50 mg), Period 1, read-out: Half-life, Median (converted)): 26.3 h
- Tmax ([1]; 150 mg, COHORT 1: 150 mg (3 × 50 mg), Period 1, read-out: Tmax, Geometric Mean): 1.34 h
- Tmax ([1]; 150 mg, COHORT 1: 150 mg (3 × 50 mg), Period 1, read-out: Tmax, Median): 1.49 h
- Vd/F ([1]; 150 mg, COHORT 1: 150 mg (3 × 50 mg), Period 1, read-out: Vz/F, Geometric Mean): 1770 L
- Vd/F ([1]; 150 mg, COHORT 1: 150 mg (3 × 50 mg), Period 1, read-out: Vz/F, Median): 1830 L
- Time to steady-state [2]: Approximately 8 days
- AUC [2, 5]: 6430 ng·h/mL
- Cmax [2, 5]: 1250 ng/mL
